Measurements from US10435447B2, “Bacteriocidal peptides and uses thereof” (priority 2015, dated 2019).
Converted amounts (≈) assume the structure as drawn. Like-named read-outs stand apart in the source and are kept apart here. Residues, ends and D or L forms follow the SMILES beside them.

How the values were obtained:
K. pneumoniae [1] = test system: K. pneumoniae
S. marcescens [2] = test system: S. marcescens
E. cloacae [3] = experiment: microbe, parasite or virus in culture; conditions: Enterobacter cloacae
E. coli [4] = experiment: microbe, parasite or virus in culture; conditions: Escherichia coli
K. pneumoniae [5] = experiment: microbe, parasite or virus in culture; conditions: Klebsiella pneumoniae
P. aeruginosa [6] = experiment: microbe, parasite or virus in culture; conditions: Pseudomonas aeruginosa
S. marcescens [7] = experiment: microbe, parasite or virus in culture; conditions: Serratia marcescens
E. cloacae [8] = test system: E. cloacae
E. coli [9] = conditions: for LVX MIC fold change (↓ decrease) / MEM MIC fold change (↓ decrease): with SMAP-29C* vs alone
P. aeruginosa [10] = test system: P. aeruginosa
[11] = test system: Toll-like receptor 3 (TLR3); experiment: IL-6 ELISA, TLR3 signaling with poly(I:C) in BEAS-2B cells; format: cell-based, human
Description: Innate immune signaling by endogenous Toll-like receptor 3 (TLR3) in BEAS-2B cells in response to double-stranded RNA and various bacteriocidal peptides. IL-6 cytokine produced in response to signal transduction by TLR3 and the double-stranded RNA mimic, poly(I:C), was quantified using ELISA. Where present, the peptides were added to the media of BEAS-2B cells to a final concentration of 2 μM. […] All assays were performed in three independent samples and the mean and one standard error is shown above the bars.

[12] = test system: Toll-like receptor 3 (TLR3); conditions: mouse cells and human cells; earlier finding; cited from earlier work
TLR4 = conditions: earlier finding; cited from earlier work
[13] = K. pneumoniae OC 4110, with SMAP-29C* vs alone
[14] = S. marcescens 4104, with SMAP-29C* vs alone
[15] = read-out: Kan + SMAP-29C* (Kan MIC)
[16] = E. cloacae OC 4080, with SMAP-29C* vs alone
[17] = P. aeruginosa PA01 oprD, with SMAP-29C* vs alone
[18] = read-out: MEM + SMAP-29C* (MEM MIC)

NC[C@H]1O[C@H](O[C@H]2[C@H](O)[C@@H](O[C@H]3O[C@H](CO)[C@@H](O)[C@H](N)[C@H]3O)[C@H](N)C[C@@H]2N)[C@H](O)[C@@H](O)[C@@H]1O [Kan, kanamycin]
Kan MIC Fold change (↓ decrease) (K. pneumoniae [1]; [13]): ↓2x fold
Kan MIC Fold change (↓ decrease) (S. marcescens [2]; [14]): ↓2x fold
MIC (E. cloacae [3]; read-out: Kan (MIC alone)): 2 µg/mL (≈ 4.13 µM)
MIC (E. coli [4]; ATCC25922, read-out: Kan (MIC alone)): 2 µg/mL (≈ 4.13 µM)
MIC (E. coli [4]; read-out: Kan (MIC alone)): 16 µg/mL (≈ 33 µM)
MIC (E. coli [4]; [15]): 8 µg/mL
MIC (K. pneumoniae [5]; read-out: Kan (MIC alone)): 4 µg/mL (≈ 8.26 µM)
MIC (P. aeruginosa [6]; read-out: Kan (MIC alone)): 64 µg/mL (≈ 132 µM)
MIC (P. aeruginosa [6]; [15]): 32 µg/mL
MIC (S. marcescens [7]; read-out: Kan (MIC alone)): 4 µg/mL (≈ 8.26 µM)

C[C@H]1COc2c(N3CCN(C)CC3)c(F)cc3c(=O)c(C(=O)O)cn1c23 [LVX, Levofloxacin]
LVX + SMAP-29C* (LVX MIC) (E. cloacae [8]): <0.004 µg/mL
LVX MIC fold change (↓ decrease) (E. cloacae [8]; [16]): ↓>8x fold
LVX MIC fold change (↓ decrease) (E. coli [9]; E. coli ATCC 25922): 1 fold
LVX MIC fold change (↓ decrease) (E. coli [9]; E. coli IU-342): ↓4x fold
LVX + SMAP-29C* (LVX MIC) (K. pneumoniae [1]): 0.5 µg/mL
LVX MIC fold change (↓ decrease) (K. pneumoniae [1]; [13]): 1 fold
LVX + SMAP-29C* (LVX MIC) (P. aeruginosa [10]): <0.125 µg/mL
LVX MIC fold change (↓ decrease) (P. aeruginosa [10]; [17]): ↓>32x fold
LVX + SMAP-29C* (LVX MIC) (S. marcescens [2]): <0.125 µg/mL
LVX MIC fold change (↓ decrease) (S. marcescens [2]; [14]): ↓>32x fold
MIC (E. cloacae [3]; read-out: LVX (MIC alone)): 0.032 µg/mL (≈ 0.0886 µM)
MIC (E. coli [4]; ATCC25922, read-out: LVX (MIC alone)): 0.016 µg/mL (≈ 0.0443 µM)
MIC (E. coli [4]; read-out: LVX (MIC alone)): 8 µg/mL (≈ 22.1 µM)
MIC (K. pneumoniae [5]; read-out: LVX (MIC alone)): 0.5 µg/mL (≈ 1.38 µM)
MIC (P. aeruginosa [6]; read-out: LVX (MIC alone)): 4 µg/mL (≈ 11.1 µM)
MIC (S. marcescens [7]; read-out: LVX (MIC alone)): 4 µg/mL (≈ 11.1 µM)

C[C@@H](O)[C@H]1C(=O)N2C(C(=O)O)=C(S[C@@H]3CN[C@H](C(=O)N(C)C)C3)[C@H](C)[C@H]12 [MEM, Meropenem]
MEM MIC fold change (↓ decrease) (E. cloacae [8]; [16]): ↓4x fold
MEM MIC fold change (↓ decrease) (E. coli [9]; E. coli ATCC 25922): ↓2x fold
MEM MIC fold change (↓ decrease) (E. coli [9]; E. coli IU-342): ↓>4x fold
MEM MIC fold change (↓ decrease) (K. pneumoniae [1]; [13]): 1x fold
MEM MIC fold change (↓ decrease) (P. aeruginosa [10]; [17]): ↓2x fold
MEM MIC fold change (↓ decrease) (S. marcescens [2]; [14]): ↓4x fold
MIC (E. cloacae [3]; read-out: MEM (MIC alone)): 0.032 µg/mL (≈ 0.0834 µM)
MIC (E. cloacae [3]; [18]): 0.008 µg/mL
MIC (E. coli [4]; ATCC25922, read-out: MEM (MIC alone)): 0.016 µg/mL (≈ 0.0417 µM)
MIC (E. coli [4]; ATCC25922, read-out: MEM + SMAP-29C* (MEM MIC)): 0.008 µg/mL
MIC (E. coli [4]; read-out: MEM (MIC alone)): 0.016 µg/mL (≈ 0.0417 µM)
MIC (E. coli [4]; [18]): < 0.004 µg/mL
MIC (K. pneumoniae [5]; read-out: MEM (MIC alone)): 0.052 µg/mL (≈ 0.136 µM)
MIC (K. pneumoniae [5]; [18]): 0.032 µg/mL
MIC (P. aeruginosa [6]; read-out: MEM (MIC alone)): 1 µg/mL (≈ 2.61 µM)
MIC (P. aeruginosa [6]; [18]): 0.5 µg/mL
MIC (S. marcescens [7]; read-out: MEM (MIC alone)): 0.032 µg/mL (≈ 0.0834 µM)
MIC (S. marcescens [7]; [18]): 0.008 µg/mL

CC[C@H](C)[C@H](NC(=O)[C@H](CCCCN)NC(=O)[C@H](CCCNC(=N)N)NC(=O)CNC(=O)[C@H](CC(C)C)NC(=O)[C@H](CCCNC(=N)N)NC(=O)[C@H](CCCNC(=N)N)NC(=O)[C@H](CC(C)C)NC(=O)CNC(=O)[C@@H](N)CCCNC(=N)N)C(=O)N[C@@H](C)C(=O)N[C@@H](Cc1c[nH]cn1)C(=O)NCC(=O)N[C@H](C(=O)N[C@@H](CCCCN)C(=O)N[C@@H](CCCCN)C(=O)N[C@@H](CS)C(=O)NCC(=O)N1CCC[C@H]1C(=O)N[C@H](C(=O)N[C@H](C(=O)N[C@@H](CC(C)C)C(=O)N[C@@H](CCCNC(=N)N)C(=O)N[C@H](C(=O)N[C@H](C(=O)N[C@@H](CCCNC(=N)N)C(=O)N[C@H](C(=O)N[C@@H](C)C(=O)NCC(=O)N[C@@H](CS)C(=O)O)[C@@H](C)CC)[C@@H](C)CC)[C@@H](C)CC)C(C)C)[C@@H](C)O)C(C)C [SMAP-29C] (H-RGLRRLGRKIAHGVKKCGPTVLRIIRIAGC-OH; N-terminus and C-terminus assumed)
MIC (E. faecalis): 32 µg/mL (≈ 9.7 µM)
MIC for ShpC + Kan* (E. cloacae [8]; E. cloacae OC 4080, with Kan* 1 μg/ml (½ MIC)): 2 µg/mL
MIC for ShpC + Kan* (E. coli [9]; E. coli ATCC25922, with Kan* 1 μg/ml (½ MIC)): <0.25 µg/mL
MIC for ShpC + Kan* (E. coli [9]; E. coli IU-342, with Kan* 8 μg/ml (½ MIC)): 2 µg/mL
MIC for ShpC + Kan* (K. pneumoniae [1]; K. pneumoniae OC 4110, with Kan* 2 μg/ml (½ MIC)): 2 µg/mL
SMAP-29C MIC fold change (↓ decrease) (K. pneumoniae [1]; K. pneumoniae OC 4110, with Kan* vs alone): ↓4x fold
SMAP-29C MIC fold change (↓ decrease) (K. pneumoniae [1]; K. pneumoniae OC 4110, with LVX* vs alone): 1x fold
SMAP-29C MIC fold change (↓ decrease) (K. pneumoniae [1]; K. pneumoniae OC 4110, with MEM* vs alone): ↓2x fold
MIC for ShpC + Kan* (P. aeruginosa [10]): 2 µg/mL
MIC for ShpC + Kan* (S. marcescens [2]; S. marcescens 4104, with Kan* 2 μg/ml (½ MIC)): 2 µg/mL
SMAP-29C MIC fold change (↓ decrease) (S. marcescens [2]; S. marcescens 4104, with Kan* vs alone): ↓>8x fold
SMAP-29C MIC fold change (↓ decrease) (S. marcescens [2]; S. marcescens 4104, with LVX* vs alone): ↓>4x fold
SMAP-29C MIC fold change (↓ decrease) (S. marcescens [2]; S. marcescens 4104, with MEM* vs alone): No change

CRAMP: SEQ ID NO: 4, mouse ortholog of LL-37, GLLRKGGEKIGEKLKKIGQKIKNFFQKLVPQPEQ (listed as Mus musculus)
enhancement of TLR3 signaling / IL-6 production (in words) [11]: unable to enhance IL-6 production
activation of signaling by TLR3 [12]: unable to activate signaling by TLR3
suppression of inflammatory response induced by lipopolysaccharide (TLR4): retained the ability to suppress inflammatory response
